Assay results: patent US7521474B2, “Biologically active lasonolide compounds” (priority 2003, dated 2009)
≈ marks a conversion by molar mass, not a printed value. Where two headings read alike, the source gives them in different places.

Tests used:
Assay type in all cases: cell-based
[1] = tested on: Candida albicans (ATCC strain 44506); experiment: Broth dilution assay (MIC); conditions: 37° C.; for MIC: Candida albicans, ATCC44506, 24 h; for Minimum inhibitory concentration (MIC): 24 hours
Method: (§1) The antifungal activity of lasonolides C and F against Candida albicans (American Type Culture Collection strain 44506) was determined through the use of both agar diffusion and broth dilution assays.
Broth dilution assays were performed as standard 96-well microtiter assays in a total volume of 50 μl with a seeding density of 10^3 cells/ml. The concentration range for test compound ranged from 50 to 3 μg/ml as two-fold dilutions. […] The Minimum inhibitory concentration (MIC) of Lasonolide F (IV) against Candida albicans in SDB broth is 50 μg/ml while in RPMI broth it is greater than 50 μg/ml.

[2] = tested on: NCI/ADR-RES (formerly MCF-7/ADR) human breast cell line; experiment: Antiproliferative MTT assay, NCI/ADR-RES; conditions: 72-h exposure
Method: (§2) The lasonolide compounds were analyzed as to their effects on proliferation of A549 human lung adenocarcinoma, PANC-1 human pancreatic cancer and NCI-ADR-RES tumor cell lines. A549 human lung adenocarcinoma, PANC-1 pancreatic cancer cells and the NCI/ADR-RES (formerly MCF-7/ADR) human breast cell lines were obtained from the American Type Culture Collection (Rockville, Md.).
(§3) All cell lines are maintained in Roswell Park Memorial Institute (RPMI) medium 1640 supplemented with 100 U/mL penicillin 100 μg/ml streptomycin, 60 μg/ml L-glutamine, 18 mM HEPES, 0.05 mg/mL gentamycin and 10% fetal bovine serum (for the PANC-1 cell line the media is also supplemented with 100 μg/ml sodium pyruvate and 2.5 mg/ml glucose). Cell lines are cultured in plastic tissue culture flasks and kept in an incubator at 37° C. in humidified air containing 5% CO2.
(§4) To assess the antiproliferative effects of agents against the various cell lines, 200 μl cultures (96-well tissue culture plates, Nunc, Denmark) are first established at 3×10^4 cells/ml for adherent lines in tissue culture medium and incubated for 24 hr at 37° C. in 10% CO2 in air in order to allow cells to attach. A volume of 100 μl of medium is removed from each test well and 100 μl of medium containing serial, two-fold dilutions of the test agent is added to each well containing tumor cells. Medium without drug is also added to wells containing tumor cells which serve as no drug controls.
(§5) Positive drug controls are included to monitor drug sensitivity of each of the cell lines. These include varying dilutions of 5-fluorouracil, and doxorubicin. After 72-h exposure, tumor cells are enumerated using 3-[4,5-Dimethylthiazol-2-yl]-2,5-diphenyltetrazolium bromide (MTT) (M. C. Alley, et al., Cancer Res. 48:589, 1988) as follows:
(§6) A volume of 75 μl of warm growth media containing 5 mg/ml MTT is added to each well, cultures returned to the incubator, and left undisturbed for 3 hours. To spectrophotometrically quantitate formation of reduced formazan, plates are centrifuged (900×g, 5 minutes), culture fluids removed by aspiration, and 200 μl of acidified isopropanol (2 ml concentrated HCl/liter isopropanol) added per well. The absorbance of the resulting solutions is measured at 570 nm with a plate reader (Spectra II (Tecan Laboratories). The absorbance of tests wells is divided by the absorbance of drug-free wells, and the concentration of agent that results in 50% of the absorbance of untreated cultures (IC50) is determined by linear regression of logit-transformed data (D. J. Finney, Statistical Method in Biological Assay, third ed., pp.316-348, Charles Griffin Co., London, 1978). A linear relationship between tumor cell number and formazan production has been routinely observed over the range of cell densities observed in these experiments. The two standard drug controls (indicated above) are included in each assay to monitor the drug sensitivity of each of the cell lines and IC50 values are determined for each drug-cell combination.

[3] = tested on: A549 human lung adenocarcinoma; experiment: Antiproliferative MTT assay, A549
Method: as §2, §3, §4, §5, §6

[4] = tested on: PANC-1 human pancreatic cancer; experiment: Antiproliferative MTT assay, PANC-1
Method: as §2, §3, §4, §5, §6

[5] = tested on: Candida albicans (ATCC strain 44506); experiment: Agar (disk) diffusion assay; conditions: 37° C., 24 hours
Method: as §1
Agar diffusion assays were performed using Sabouraud Dextrose agar plates seeded with the test microbe at 10^5/ml. Disks (6.35 mm, Schliecher and Schuell) were impregnated with 25 μg of test compound, allowed to dry and then placed on the agar surface. After incubation at 37° C. for 24 hours the zones of growth inhibition were determined. A control disk containing 100IU nystatin was run on the same plate as the test compound: the zone of inhibition was 28 mm.

[6] = Homo sapiens, NCI/ADR-RES, value in parentheses
[7] = Homo sapiens, A549, 72-h exposure
[8] = Homo sapiens, A549, 72-h exposure, value in parentheses
[9] = Homo sapiens, PANC-1, 72-h exposure
[10] = Homo sapiens, PANC-1, 72-h exposure, value in parentheses
[11] = 72-h exposure, value in parentheses

Compound: Nc1nc(=O)[nH]cc1F [5-fluorocytosine, reference compound]
- MIC ([1]; antifungal control, broth not stated, read-out: MIC): 0.62 µg/mL (≈ 4.8 µM)

Compound: CC1=C/[C@H]2O[C@@H](C/C=C/C=C/C(=O)O[C@@H]3C[C@@H](/C=C/C\C=C\1)O[C@@H](C/C=C\CCO)[C@]3(C)CO)C[C@H](O)[C@H]2C [Lasonolide D (II), Lasonolide D]
- IC50 ([2]; Homo sapiens, NCI/ADR-RES): > 5 µg/mL
- IC50 [2, 6]: > 9000 nM
- IC50 [3, 7]: 2.4 µg/mL
- IC50 [3, 8]: 4500 nM
- IC50 [4, 9]: 2.6 µg/mL
- IC50 [4, 10]: 4900 nM

Compound: CCOC(=O)C(O)C/C=C\C[C@@H]1O[C@@H]2/C=C/C/C=C/C(C)=C\[C@H]3O[C@@H](C/C=C/C=C/C(=O)O[C@H](C2)[C@@]1(C)CO)C[C@H](O)[C@H]3C (some centres unmarked) [Lasonolide E (III), Lasonolide E]
- IC50 ([2]; Homo sapiens, NCI/ADR-RES): > 5 µg/mL
- IC50 [2, 6]: > 8000 nM
- IC50 [3, 7]: 0.19 µg/mL
- IC50 [3, 8]: 310 nM
- IC50 [4, 9]: 0.35 µg/mL
- IC50 [4, 10]: 570 nM

Compound: CC1=C/[C@H]2O[C@@H](C/C=C/C=C/C(=O)O[C@@H]3C[C@@H](/C=C/C\C=C\1)O[C@@H](C/C=C\CC(O)C(=O)O)[C@]3(C)CO)C[C@H](O)[C@H]2C (some centres unmarked) [Lasonolide F (IV), Lasonolide F]
- MIC ([1]; RPMI broth, read-out: Minimum inhibitory concentration (MIC)): > 50 µg/mL
- MIC ([1]; SDB broth, read-out: Minimum inhibitory concentration (MIC)): 50 µg/mL (≈ 85.2 µM)
- zone of inhibition at 25 µg/mL ([5]; Candida albicans, ATCC44506, tested at 25 μg/ml (disk 6.35 mm impregnated with 25 μg), read-out: growth inhibitory zone): 10 mm

Compound: C[C@@H]1[C@H](O)[C@@H](C)/C=C/C=C/CC/C=C/C=C/C=C/C=C/C(O[C@H]2O[C@H](C)[C@@H](O)[C@H](N)[C@@H]2O)CC2O[C@](O)(CC(O)C(O)CCC(O)CC(O)CC(O)CC(=O)O[C@H]1C)CC(O)C2C(=O)O (some centres unmarked) [nystatin, reference compound]
- zone of inhibition ([5]; control disk containing 100IU, same plate): 28 mm

Compound: Lasonolide C [Lasonolide C (I)]
- NCI ADR-RES IC50 [2]: 0.8 µg/mL
- IC50 ([2]; value in parentheses): 1120 nM
- A549 IC50 ([3]; 72-h exposure): 0.095 µg/mL
- IC50 [3, 11]: 130 nM
- PANC-1 IC50 ([4]; 72-h exposure): 0.27 µg/mL
- IC50 [4, 11]: 380 nM
- Minimum inhibitory concentration (MIC) ([1]; RPMI broth): 12.5 µg/mL
- Minimum inhibitory concentration (MIC) ([1]; SDB broth): 5 µg/mL
- growth inhibitory zone ([5]; tested at 25 μg/ml (disk 6.35 mm impregnated with 25 μg)): 15 mm
